In EPA's ToxValDB 9.5 (doi:10.2903/j.efsa.2015.4279):

Assays:
[1] = test system: Typhlodromus pyri; assay: LR50; higher = less toxic; settings: not reported; mortality
[2] = test system: Apis mellifera; settings: acute; oral; unspecified; mortality
[3] = test system: Bibionidae; settings: chronic/long-term; duration: 28 days; development
[4] = test system: Tagia sp.
[5] = test system: Oryctolagus sp.; settings: reproduction developmental; hematological
[6] = test system: Colinus virginianus; settings: chronic
[7] = test system: Anas platyrhynchos; settings: acute; oral; unspecified; mortality
[8] = test system: Canidae; settings: oral, Dog Other, hematological
[9] = test system: Oncorhynchus mykiss; settings: chronic/long-term; duration: 95 days; growth
[10] = test system: Folsomia candida; settings: chronic/long-term
[11] = test system: Rattus norvegicus
[12] = test system: Daphnia magna; settings: chronic/long-term; duration: 21 days; reproduction

## O=C(Nc1ccc(F)cc1)c1cccc(Oc2cccc(C(F)(F)F)c2)n1 [Picolinafen]
[1]
  LR50: > 100 g/ha
[2]
  LD50: > 200 µg/piece
[3]
  NOEC: 0.18 mg/L
[4]; acute, duration: 14 days, mortality
  LC50: > 500 mg/kg
[4]; chronic/long-term, duration: 8 weeks
  NOEC: 1.68 mg/kg
[5]
  NOAEL: 5 mg/kg-day
[6]
  NOEL: 59.5 mg/kg-day
[7]
  LD50: > 2250 mg/kg-day
[8]; chronic, duration: 1 years
  NOAEL: 1.4 mg/kg-day
[8]; subchronic, duration: 90 days
  NOAEL: 5.2 mg/kg-day
[9]
  NOEC: 0.0064 mg/L
[10]
  NOEC: 250 mg/kg
[11]; acute, mortality
  LD50: > 5000 mg/kg-day
[11]; chronic
  NOAEL: 4 mg/kg-day
[12]
  NOEC: 0.007 mg/L
